Results: article PMC8689007, “In Silico Prediction and Bioactivity Evaluation of Chemical Ingredients Against Influenza A Virus From Isatis tinctoria L” (Frontiers in Pharmacology, 2021)
Values after ≈ are worked out from the molar mass of the structure shown. Values joined by “and” are separate entries in the source; they are usually repeats but may differ in a detail not shown here. Equal entries are not always repeated. Where two headings read alike, the source gives them in different places.

How the values were obtained:
[1] = system: A/Minfang/151/2000 (H3N2); experiment: microbe, parasite or virus in culture; details: Influenza A virus, H3N2, MDCK
[2] = system: A/Minfang/151/2000 (H3N2)
A/PR/8/34 (H1N1) [3] = experiment: microbe, parasite or virus in culture; details: Influenza A virus, MDCK
A/PR/8/34 (H1N1) [4] = system: A/PR/8/34 (H1N1)
[5] = system: Japanese encephalitis virus (JEV); details: mouse model; ref Chang et al., 2012; cited from earlier work
H1N1 = details: restraint-stressed mouse model; ref Chong et al., 2017; cited from earlier work
[6] = system: Japanese encephalitis virus (JEV); details: in vitro; ref Chang et al., 2012; cited from earlier work
HCoV-NL63 = system: HCoV-NL63; parameters: method as in Tsai et al., 2020; details: HCoV-NL63-infected cells; ref Tsai et al., 2020; read-out: IC50 (CPE and virus yield); cited from earlier work

SMILES | IC50 [1] [µg/mL] | IC50 [2] | IC50 (A/PR/8/34 (H1N1) [3]) [µg/mL] | IC50 (A/PR/8/34 (H1N1) [4]) | other results
COc1ccc(-c2cc(=O)c3c(O)cc(O)cc3o2)cc1 [Acacetin] | 7.62 ± 1.45 (≈ 26.8 µM) | – | – | – | –
COc1c(O)cc2oc(-c3ccc(O)cc3)cc(=O)c2c1O [Dinatin] | > 100 | – | – | – | –
COc1ccc(-c2cc(=O)c3c(O)c(OC)c(OC)cc3o2)cc1O [Eupatorin] | – | 69.31 ± 1.97 µg/mL and 73.85 ± 1.34 µg/mL and 92.58 ± 0.33 µg/mL | 59.5 ± 3.58 (≈ 173 µM) | 63.99 ± 3.38 µg/mL and 55.77 ± 3.86 µg/mL and 88.92 ± 7.34 µg/mL | –
O=C1Nc2ccccc2/C1=C1/Nc2ccccc2C1=O [Indirubin] | 77.2 ± 6 (≈ 294 µM) | – | 58.5 ± 10.2 (≈ 223 µM) | 63.45 ± 5.27 µg/mL and 86.3 ± 5.68 µg/mL and 69.49 ± 1.36 µg/mL | protection against lethal JEV challenge [5]: good protective effects; H1N1 susceptibility and lung damage (H1N1): decrease the H1N1 susceptibility and alleviate lung damage; inhibitory activity on JEV replication [6]: concentration-dependent inhibitory activity
COc1ccc(-c2cc(=O)c3c(O)cc(O[C@@H]4O[C@H](CO[C@@H]5O[C@@H](C)[C@H](O)[C@@H](O)[C@H]5O)[C@@H](O)[C@H](O)[C@H]4O)cc3o2)cc1 [Linarin] | – | 81.85 ± 2.76 µg/mL and 86.35 ± 9.88 µg/mL and 77.71 ± 3.08 µg/mL | 63.2 ± 3.32 (≈ 107 µM) | 54.27 ± 3.01 µg/mL and 72.21 ± 2.42 µg/mL and 56.26 ± 0.78 µg/mL | –
O=C1c2ccccc2-n2c1nc1ccccc1c2=O [Tryptanthrin] | – | – | – | – | IC50 (HCoV-NL63): 1520 nM
